Results from patent US20210115104A1, “AMYLIN ANALOGUES” (Zealand Pharma A/S, priority 2015, published 2021).
*1 amine or outer side, *2 acyl side, *3 side chain or, on linkers, in order; H or OH if unused. Where a SMILES comes first, the peptide text is derived from it. Bridges are numbered along the chain shown (N, C = ends). [ ]: non-standard residue; d: D form. The star is where a group is joined. C20 diacid = O=C(O)CCCCCCCCCCCCCCCCCCC(=O)*; γGlu = O=C(O)[C@H](CCC(=O)[*:2])N[*:1]; Hyp = O=C(O)[C@@H]1C[C@@H](O)CN1; NMeI = CC[C@H](C)[C@H](NC)C(=O)O; Sar = CNCC(=O)O

Columns and labels:
[1] = target: T1, human calcitonin receptor (hCTR2) (Homo sapiens, UniProt P30988); assay: hCTR2 cAMP assay (AlphaScreen) in COS7 cells; format: cell-based; conditions: cAMP induction, COS7 cells expressing hCTR2; Table 1; read-out: hCTR2 EC50
T1 construct: expressed in transfected cells
T1 sequence (P30988 25-474): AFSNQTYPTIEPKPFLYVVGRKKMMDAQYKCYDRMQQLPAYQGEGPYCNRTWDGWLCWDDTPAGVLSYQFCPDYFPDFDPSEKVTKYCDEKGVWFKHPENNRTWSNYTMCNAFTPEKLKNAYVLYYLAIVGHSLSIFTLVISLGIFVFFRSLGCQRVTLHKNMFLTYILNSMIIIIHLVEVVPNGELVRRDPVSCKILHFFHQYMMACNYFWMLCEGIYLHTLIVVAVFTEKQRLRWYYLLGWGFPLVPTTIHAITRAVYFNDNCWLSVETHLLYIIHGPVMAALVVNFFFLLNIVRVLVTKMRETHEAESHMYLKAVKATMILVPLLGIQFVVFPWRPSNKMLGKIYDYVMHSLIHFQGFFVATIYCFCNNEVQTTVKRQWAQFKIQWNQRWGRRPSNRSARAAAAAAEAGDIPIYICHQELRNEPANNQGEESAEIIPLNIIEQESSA
How it was run: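 cAMP induction, read by AlphaScreen after lysis, gives EC50 values via 4PL curve fitting. Peptides were applied at rising concentrations for 15 min at 37 °C, with IBMX and 0.1% casein in HEPES-buffered Tyrode pH 7.4, to COS7 cells (no endogenous RAMPs) stably expressing human CTR2.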

[2] = target: T2, human amylin receptor 3 (hAMYR3), hCTR2 co-expressed with hRAMP3 (Homo sapiens, UniProt O60896+P30988); assay: hAMYR3 cAMP assay (AlphaScreen) in COS7 cells; format: cell-based; conditions: cAMP induction, COS7 cells expressing hAMYR3; Table 1; read-out: hAMYR3 EC50
T2 construct: expressed in transfected cells
T2 sequence (P30988 25-474): T1 sequence (P30988 25-474)
T2 sequence (O60896 24-148 partner): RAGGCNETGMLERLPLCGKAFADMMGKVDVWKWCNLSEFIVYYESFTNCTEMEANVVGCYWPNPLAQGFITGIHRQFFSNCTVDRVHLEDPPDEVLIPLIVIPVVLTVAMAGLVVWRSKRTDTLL
How it was run: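 EC50 values derive from 4PL curve fits of cAMP (AlphaScreen) in lysates of RAMP-naive COS7 cells stably carrying hCTR2 plus hRAMP3. Peptide dilution series were applied for 15 min at 37 °C in pH 7.4 Tyrode buffer containing 100 µM IBMX and 0.1% casein.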

[3] = Assessment of chemical stability (RP-HPLC normalized purity); format: physicochemical; conditions: 7 days, 40° C., Table 1; for Normalized purity after 7 days, 40° C., pH 4: pH 4, 0.2 mg/ml; for Normalized purity after 7 days, 40° C., pH 6: pH 6, 0.2 mg/ml; for Normalized purity after 7 days, 40° C., pH 9: pH 9, 0.2 mg/ml; for Normalized purity after 7 days, 40° C., pH 7.5: pH 7.5, 0.2 mg/ml
How it was run: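 Purity after 7 days at 40° C is expressed relative to T=0 (set to 100) for each pH. Samples at 0.2 mg/ml, pH 4, 6, 7.5 or 9, analyzed by RP-HPLC with UV 220 nm on C8 (ammonium formate) or C18 (TFA) gradients.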

EC50 [1]	EC50 [2]	Normalized purity after 7 days, 40° C., pH 4 [3]	Normalized purity after 7 days, 40° C., pH 6 [3]	Normalized purity after 7 days, 40° C., pH 9 [3]	Normalized purity after 7 days, 40° C., pH 7.5 [3]	Structure (SMILES)
0.077 nM	0.22 nM	A (A = >90%)	B (B = 70-90%)	B (B = 70-90%)		CC[C@H](C)[C@@H](C(=O)N[C@@H](CC(C)C)C(=O)N[C@@H](CO)C(=O)N[C@@H](CO)C(=O)N[C@H](C(=O)N[C@@H](CCC(=O)O)C(=O)N[C@H](C(=O)NCC(=O)N[C@@H](CO)C(=O)N[C@@H](CC(N)=O)C(=O)N[C@H](C(=O)N1C[C@H](O)C[C@H]1C(N)=O)[C@@H](C)O)C(C)C)[C@@H](C)O)N(C)C(=O)[C@H](C)NC(=O)CN(C)C(=O)[C@H](Cc1ccccc1)NC(=O)[C@H](CO)NC(=O)[C@H](CO)NC(=O)[C@H](CCCNC(=N)N)NC(=O)[C@H](CC(N)=O)NC(=O)[C@H](CC(C)C)NC(=O)[C@H](Cc1ccccc1)NC(=O)[C@H](Cc1c[nH]cn1)NC(=O)[C@H](C)NC(=O)[C@H](CC(C)C)NC(=O)[C@H](CCCNC(=N)N)NC(=O)[C@H](CCC(=O)O)NC(=O)[C@@H](NC(=O)[C@H](C)NC(=O)[C@@H]1CSSC[C@H](NC(=O)[C@H](CCCNC(=N)N)NC(=O)CC[C@H](NC(=O)CCCCCCCCCCCCCCCCCCC(=O)O)C(=O)O)C(=O)NCC(=O)N[C@@H]([C@@H](C)O)C(=O)N[C@@H](C)C(=O)N[C@@H]([C@@H](C)O)C(=O)N1)[C@@H](C)O [Compound 6, [19CD]-isoGlu-R-C( )-GTAT-C( )-ATERLAHFLNRSSF-Gly(Me)-A-Ile(Me)-LSSTEVGSNT-Hyp-NH2] ({C20 diacid-γGlu}-RCGTATCATERLAHFLNRSSF[Sar]A[NMeI]LSSTEVGSNT[Hyp]-NH2; disulfide 2-7)
0.087 nM		A (A = >90%)	A (A = >90%)	A (A = >90%)	A (A = >90%)	CC[C@H](C)[C@@H](C(=O)N[C@@H](CC(C)C)C(=O)N[C@@H](CO)C(=O)N[C@@H](CO)C(=O)N[C@H](C(=O)N[C@@H](CCC(=O)O)C(=O)N[C@H](C(=O)NCC(=O)N[C@@H](CO)C(=O)N[C@@H](CC(N)=O)C(=O)N[C@H](C(=O)N1C[C@H](O)C[C@H]1C(N)=O)[C@@H](C)O)C(C)C)[C@@H](C)O)N(C)C(=O)[C@H](C)NC(=O)CN(C)C(=O)[C@H](Cc1ccccc1)NC(=O)[C@H](CO)NC(=O)[C@H](CO)NC(=O)[C@H](CCCNC(=N)N)NC(=O)[C@H](CCC(N)=O)NC(=O)[C@H](CC(C)C)NC(=O)[C@H](Cc1ccccc1)NC(=O)[C@H](Cc1c[nH]cn1)NC(=O)[C@H](C)NC(=O)[C@H](CC(C)C)NC(=O)[C@H](CCCNC(=N)N)NC(=O)[C@H](CCC(=O)O)NC(=O)[C@@H](NC(=O)[C@H](C)NC(=O)[C@@H]1CSSC[C@H](NC(=O)[C@H](CCCNC(=N)N)NC(=O)CC[C@H](NC(=O)CCCCCCCCCCCCCCCCCCC(=O)O)C(=O)O)C(=O)NCC(=O)N[C@@H]([C@@H](C)O)C(=O)N[C@@H](C)C(=O)N[C@@H]([C@@H](C)O)C(=O)N1)[C@@H](C)O [Compound 7, [19CD]-isoGlu-R-C( )-GTAT-C( )-ATERLAHFLQRSSF-Gly(Me)-A-Ile(Me)-LSSTEVGSNT-Hyp-NH2] ({C20 diacid-γGlu}-RCGTATCATERLAHFLQRSSF[Sar]A[NMeI]LSSTEVGSNT[Hyp]-NH2; disulfide 2-7)
0.044 nM	0.079 nM	A (A = >90%)	B (B = 70-90%)	B (B = 70-90%)	B (B = 70-90%)	CC[C@H](C)[C@@H](C(=O)N[C@@H](CC(C)C)C(=O)N[C@@H](CO)C(=O)N[C@@H](CO)C(=O)N[C@H](C(=O)N[C@@H](CCC(=O)O)C(=O)N[C@H](C(=O)NCC(=O)N[C@@H](CO)C(=O)N[C@@H](CC(N)=O)C(=O)N[C@H](C(=O)N1CCC[C@H]1C(N)=O)[C@@H](C)O)C(C)C)[C@@H](C)O)N(C)C(=O)[C@H](C)NC(=O)CN(C)C(=O)[C@H](Cc1ccccc1)NC(=O)[C@H](CO)NC(=O)[C@H](CO)NC(=O)[C@H](CCCNC(=N)N)NC(=O)[C@H](Cc1c[nH]cn1)NC(=O)[C@H](CC(C)C)NC(=O)[C@H](Cc1ccccc1)NC(=O)[C@H](Cc1c[nH]cn1)NC(=O)[C@H](C)NC(=O)[C@H](CC(C)C)NC(=O)[C@H](CCCNC(=N)N)NC(=O)[C@H](CCC(=O)O)NC(=O)[C@@H](NC(=O)[C@H](C)NC(=O)[C@@H]1CSSC[C@H](NC(=O)[C@H](CCCNC(=N)N)NC(=O)CC[C@H](NC(=O)CCCCCCCCCCCCCCCCCCC(=O)O)C(=O)O)C(=O)NCC(=O)N[C@@H]([C@@H](C)O)C(=O)N[C@@H](C)C(=O)N[C@@H]([C@@H](C)O)C(=O)N1)[C@@H](C)O [Compound 15, [19CD]-isoGlu-R-C( )-GTAT-C( )-ATERLAHFLHRSSF-Gly(Me)-A-Ile(Me)-LSSTEVGSNTP-NH2] ({C20 diacid-γGlu}-RCGTATCATERLAHFLHRSSF[Sar]A[NMeI]LSSTEVGSNTP-NH2; disulfide 2-7)
0.11 nM	0.13 nM	A (A = >90%)	B (B = 70-90%)	B (B = 70-90%)	B (B = 70-90%)	CC[C@H](C)[C@@H](C(=O)N[C@@H](CC(C)C)C(=O)N[C@@H](CO)C(=O)N[C@@H](CO)C(=O)N[C@H](C(=O)N[C@@H](CCC(=O)O)C(=O)N[C@H](C(=O)NCC(=O)N[C@@H](CO)C(=O)N[C@@H](CO)C(=O)N[C@H](C(=O)N1C[C@H](O)C[C@H]1C(N)=O)[C@@H](C)O)C(C)C)[C@@H](C)O)N(C)C(=O)[C@H](C)NC(=O)CN(C)C(=O)[C@H](Cc1ccccc1)NC(=O)[C@H](CO)NC(=O)[C@H](CO)NC(=O)[C@H](CCCNC(=N)N)NC(=O)[C@H](CCC(N)=O)NC(=O)[C@H](CC(C)C)NC(=O)[C@H](Cc1ccccc1)NC(=O)[C@H](Cc1c[nH]cn1)NC(=O)[C@H](C)NC(=O)[C@H](CC(C)C)NC(=O)[C@H](CCCNC(=N)N)NC(=O)[C@H](CCC(=O)O)NC(=O)[C@@H](NC(=O)[C@H](C)NC(=O)[C@@H]1CSSC[C@H](NC(=O)[C@H](CCCNC(=N)N)NC(=O)CC[C@H](NC(=O)CCCCCCCCCCCCCCCCCCC(=O)O)C(=O)O)C(=O)NCC(=O)N[C@@H]([C@@H](C)O)C(=O)N[C@@H](C)C(=O)N[C@@H]([C@@H](C)O)C(=O)N1)[C@@H](C)O [Compound 28, [19CD]-isoGlu-R-C( )-GTAT-C( )-ATERLAHFLQRSSF-Gly(Me)-A-Ile(Me)-LSSTEVGSST-Hyp-NH2] ({C20 diacid-γGlu}-RCGTATCATERLAHFLQRSSF[Sar]A[NMeI]LSSTEVGSST[Hyp]-NH2; disulfide 2-7)
0.09 nM	0.12 nM	A (A = >90%)	B (B = 70-90%)	B (B = 70-90%)	B (B = 70-90%)	CC[C@H](C)[C@@H](C(=O)N[C@@H](CC(C)C)C(=O)N[C@@H](CO)C(=O)N[C@@H](CO)C(=O)N[C@H](C(=O)N[C@@H](CCC(=O)O)C(=O)N[C@H](C(=O)NCC(=O)N[C@@H](CO)C(=O)N[C@@H](CO)C(=O)N[C@H](C(=O)N1CCC[C@H]1C(N)=O)[C@@H](C)O)C(C)C)[C@@H](C)O)N(C)C(=O)[C@H](C)NC(=O)CN(C)C(=O)[C@H](Cc1ccccc1)NC(=O)[C@H](CO)NC(=O)[C@H](CO)NC(=O)[C@H](CCCNC(=N)N)NC(=O)[C@H](CCC(N)=O)NC(=O)[C@H](CC(C)C)NC(=O)[C@H](Cc1ccccc1)NC(=O)[C@H](Cc1c[nH]cn1)NC(=O)[C@H](C)NC(=O)[C@H](CC(C)C)NC(=O)[C@H](CCCNC(=N)N)NC(=O)[C@H](CCC(=O)O)NC(=O)[C@@H](NC(=O)[C@H](C)NC(=O)[C@@H]1CSSC[C@H](NC(=O)[C@H](CCCNC(=N)N)NC(=O)CC[C@H](NC(=O)CCCCCCCCCCCCCCCCCCC(=O)O)C(=O)O)C(=O)NCC(=O)N[C@@H]([C@@H](C)O)C(=O)N[C@@H](C)C(=O)N[C@@H]([C@@H](C)O)C(=O)N1)[C@@H](C)O [Compound 34, [19CD]-isoGlu-R-C( )-GTAT-C( )-ATERLAHFLQRSSF-Gly(Me)-A-Ile(Me)-LSSTEVGSSTP-NH2] ({C20 diacid-γGlu}-RCGTATCATERLAHFLQRSSF[Sar]A[NMeI]LSSTEVGSSTP-NH2; disulfide 2-7)
